Key:
NMDA receptors = experiment: Electrophysiological patch clamp test of the NMDA-induced current in hippocampal CA1 neurons; type: cell-based, rat
Protocol: Under the circumstances, the effects of docosahexaenoic acid on NMDA receptors of PCP were investigated.
The investigation was conducted by an electrophysiological procedure. More specifically, the brain of a 2-week-old rat was delivered and slices were prepared. Then, neurons were taken from the hippocampal CA1 region and used as samples. An electrophysiological test was conducted by a patch clamp method under fixed potential conditions.

[1] = tested on: negative symptoms of schizophrenia; experiment: One-month oral administration to subjects, compared with placebo; type: in vivo; conditions: human, oral 300 mg three times a day
Protocol: Sixteen subjects aged from 35 to 60 were treated with either the antipsychotic of the present invention or a placebo. Eleven out of these sixteen subjects had been treated with chlorpromazine and haloperidol in the past. Eight subjects were treated with the antipsychotic of the present invention and the other eight were treated with the placebo.
Docosahexaenoic acid or placebo was orally administered to the subjects three times a day, each in a dose of 300 mg.

SMILES: CN[C@H](CC(=O)O)C(=O)O [NMDA, N-methyl-D-aspartic acid]
- inward current caused by NMDA (NMDA receptors; 30 μM NMDA, holding potential -50 mV, rat hippocampal CA1 neurons): 300 pA

SMILES: c1ccc(C2(N3CCCCC3)CCCCC2)cc1 [PCP, phencyclidine]
- change of NMDA-induced current on treatment with PCP (NMDA receptors; 5 μM PCP and 30 μM NMDA): decreased by half

SMILES: CC/C=C\C/C=C\C/C=C\C/C=C\C/C=C\C/C=C\CCC(=O)O [docosahexaenoic acid]
- primary side effects [1]: neither primary side effects
- variations in biochemical blood and urine tests [1]: nor significant variations in biochemical blood and urine tests
